Experimental findings from ChEMBL document CHEMBL4028819, “Synthesis, antiplatelet and antithrombotic activities of resveratrol derivatives with NO-donor properties” (Bioorg Med Chem Lett, 2017) are described below.

The term inhibition denotes the percentage by which the read-out fell short of the control.

Activity calls are given as the source filed them. The rule behind the calls is not given here.

In data set [1] the test system is Platelet. In words: Antiplatelet activity in Wistar rat platelet rich plasma assessed as inhibition of collagen-induced platelet aggregation at 150 uM preincubated for 1 min followed by collagen addition by aggregometric analysis relative to control. The format is functional.
The subject of data set [2] is Platelet. In words: Antiplatelet activity in Wistar rat platelet rich plasma assessed as inhibition of arachidonic acid-induced platelet aggregation at 150 uM preincubated for 1 min followed by arachidonic acid addition by aggregometric analysis relative to control. The format is functional.
The subject of data set [3] is Platelet. In words: Antiplatelet activity in Wistar rat platelet rich plasma assessed as inhibition of ADP-induced platelet aggregation at 150 uM preincubated for 1 min followed by ADP addition by aggregometric analysis relative to control. The format is functional.
The test system of data set [4] is Mus musculus. In words: Toxicity in Swiss albino mouse assessed as bleeding time at 100 umol/10 g administered orally 60 mins prior to test by tail transection method. The conditions noted are these: in vivo, po, 1 h.
Data set [5] deals with Mus musculus. In words: Anti-thrombotic activity in Swiss albino mouse assessed as protection against collagen/epinephrine-induced pulmonary thromboembolism at 100 umol/10 g, po administered as single dose pretreated for 60 mins followed by thrombotic challenge relative to control. It is filed as functional.
Data set [6] can be described thus: Induction of NO release assessed as nitrite formation in aqueous buffer at pH 7.4 measured after 1 hr in presence of L-cysteine by Griess assay. Details: concentration or dose not given beside the values. On the technique in general: Griess reagent forms a coloured azo dye with nitrite.

Regarding `O=C(N/N=C/c1cccc(O)c1)c1cccc(O)c1`, the inhibition at 150 µM was 29.1% in the data set on Platelet [1], 48.2% with Platelet [2] and 46.1% in the data set on Platelet [3].

For the compound `O=C(N/N=C/c1ccc(O)cc1)c1ccc(O)cc1`, the inhibition at 150 µM came out at 44% in the data set with Platelet [1], 79.6% with Platelet [2] and 31.3% with Platelet [3]. For the same compound, in the data set with Mus musculus [4], the Time is recorded as 200 s. For the same compound, the Activity in the data set with Mus musculus [5] worked out at 40%.

For `O=C(N/N=C/c1cccc(O)c1)c1ccccc1O`, the inhibition at 150 µM in the data set on Platelet [1] was determined as 27.5%; in the data set with Platelet [2], 60.8%; in the data set with Platelet [3], 56%.

For the compound `O=S(=O)(c1ccccc1)c1no[n+]([O-])c1S(=O)(=O)c1ccccc1`, the values for the inhibition at 150 µM in the data set with Platelet [1], in the data set on Platelet [2] and in the data set on Platelet [3] were 29.7%, 6.7% and 89.8%, respectively. For the same compound, in data set [6], the Activity turned out to be 32.1%. Besides, the result with Mus musculus [5] was inactive.

Take `O=C(N/N=C/c1ccc(Oc2no[n+]([O-])c2S(=O)(=O)c2ccccc2)cc1)c1ccc(O)cc1`: the inhibition at 150 µM with Platelet [1] was determined as 72.2%; with Platelet [2] it was 20.3%; in the data set on Platelet [3] it was 87.1%. The Activity in data set [6] turned out to be 25.8%; with Mus musculus [5], 80%. Besides, in the data set with Mus musculus [4], the Time amounted to 380 s.

Consider `O=C(N/N=C/c1ccc(O)cc1)c1ccccc1O`, for which the inhibition at 150 µM stood at 35.9% with Platelet [1], 42.5% in the data set on Platelet [2] and 58.2% in the data set on Platelet [3].

With `O=C(N/N=C/c1ccc(Oc2no[n+]([O-])c2S(=O)(=O)c2ccccc2)cc1)c1ccccc1O`, the results for the inhibition at 150 µM in the data set on Platelet [1], in the data set on Platelet [2] and in the data set on Platelet [3] were 34.4%, 8.5% and 74.3%, respectively. The Activity in data set [6] is 24.5%.

Take `O=C(N/N=C/c1cccc(Oc2no[n+]([O-])c2S(=O)(=O)c2ccccc2)c1)c1ccccc1O`: the inhibition at 150 µM in the data set with Platelet [1] was 25.5%; in the data set on Platelet [2], 17%; in the data set with Platelet [3], 84.2%. For the same compound, the Activity in data set [6] worked out at 25.3%.

Take `O=C(N/N=C/c1ccc(Oc2no[n+]([O-])c2S(=O)(=O)c2ccccc2)cc1)c1cccc(O)c1`: the inhibition at 150 µM amounted to 54.3% in the data set with Platelet [1], 37.3% with Platelet [2] and 82.2% in the data set on Platelet [3]. In data set [6], the Activity stood at 26.2%.

`CC(=O)Oc1ccccc1C(=O)O` [ASPIRIN]: the figures for the inhibition at 150 µM in the data set with Platelet [1], in the data set on Platelet [2] and with Platelet [3] were 63.4%, 28.9% and 27.7%, respectively. In addition, the Time with Mus musculus [4] was 800 s. Further, the Activity in the data set on Mus musculus [5] is reported as 40%.

Consider `O=C(N/N=C/c1ccc(O)cc1)c1cccc(O)c1`, for which the inhibition at 150 µM amounted to 19.1% in the data set with Platelet [1], 72.8% in the data set on Platelet [2] and 60.3% in the data set on Platelet [3].

With `O=C(N/N=C/c1cccc(Oc2no[n+]([O-])c2S(=O)(=O)c2ccccc2)c1)c1cccc(O)c1`, the inhibition at 150 µM with Platelet [1] was determined as 44.8%; with Platelet [2] it was 25%; with Platelet [3], 88.4%. Further, in data set [6], the Activity turned out to be 24.1%.

As for `O=C(N/N=C/c1cccc(O)c1)c1ccc(O)cc1`, the inhibition at 150 µM in the data set with Platelet [1] worked out at 33.1%; in the data set on Platelet [2] it was 74.1%; in the data set with Platelet [3], 42.4%.

`O=C(N/N=C/c1cccc(Oc2no[n+]([O-])c2S(=O)(=O)c2ccccc2)c1)c1ccc(O)cc1`: the inhibition at 150 µM with Platelet [1] is 39.9%; in the data set with Platelet [2] it was 14.3%; in the data set on Platelet [3], 91.9%. Further, the Activity in data set [6] turned out to be 27.4%.
